Assay results: patent US20240018123A1, “COMPOUND FOR INHIBITING OR DISINTEGRATING ANDROGEN RECEPTOR, AND PHARMACEUTICAL USE THEREOF” (KOREA RESEARCH INSTITUTE OF CHEMICAL TECHNOLOGY, priority 2020, published 2024)
Read-outs that look alike come from different tables or passages of the source.

Columns and labels:
[1] = test system: LNCaP cells
[2] = test system: 22RV1 cells; test: Cytotoxicity assessment (Cell-titer-glo cell viability), 22RV1; format: cell-based
Experimental: In order to evaluate the androgen receptor (AR) cytotoxicity of the compounds according to the present invention, the following experiment was conducted. Specifically, 1.5×10^3 (LNCaP) or 4×10^3 (VCaP, 22RV1), respectively, of LNCaP, VCaP, and 22RV1 cells were injected into each well of a 96-well plate. The next day, each well was treated with the compound at a final concentration of 3 nM, 10 nM, 30 nM, 100 nM, 300 nM, 1 μM, 3 μM, and 10 μM. […] After 6 days of treatment, Cell-titer-glo (promega) was treated and reacted for 10 minutes, and cell viability was measured with a multimode plate reader (PerkinElmer, Inc.), and the change was quantified compared to when DMSO was treated.

[3] = target: T1, Androgen receptor (AR) (Homo sapiens, UniProt P10275, T878A); test: Assessment of AR proteolytic activity (Western blotting of LNCap cell lysates); format: cell-based; details: 24 hours of treatment, Western blotting quantified with Image J
T1 construct: 5.5×10^5 LNCap cells were injected into each well of a 6-well plate; endogenous in cells; host or cells: LNCaP
T1 sequence (P10275 1-920 T878A): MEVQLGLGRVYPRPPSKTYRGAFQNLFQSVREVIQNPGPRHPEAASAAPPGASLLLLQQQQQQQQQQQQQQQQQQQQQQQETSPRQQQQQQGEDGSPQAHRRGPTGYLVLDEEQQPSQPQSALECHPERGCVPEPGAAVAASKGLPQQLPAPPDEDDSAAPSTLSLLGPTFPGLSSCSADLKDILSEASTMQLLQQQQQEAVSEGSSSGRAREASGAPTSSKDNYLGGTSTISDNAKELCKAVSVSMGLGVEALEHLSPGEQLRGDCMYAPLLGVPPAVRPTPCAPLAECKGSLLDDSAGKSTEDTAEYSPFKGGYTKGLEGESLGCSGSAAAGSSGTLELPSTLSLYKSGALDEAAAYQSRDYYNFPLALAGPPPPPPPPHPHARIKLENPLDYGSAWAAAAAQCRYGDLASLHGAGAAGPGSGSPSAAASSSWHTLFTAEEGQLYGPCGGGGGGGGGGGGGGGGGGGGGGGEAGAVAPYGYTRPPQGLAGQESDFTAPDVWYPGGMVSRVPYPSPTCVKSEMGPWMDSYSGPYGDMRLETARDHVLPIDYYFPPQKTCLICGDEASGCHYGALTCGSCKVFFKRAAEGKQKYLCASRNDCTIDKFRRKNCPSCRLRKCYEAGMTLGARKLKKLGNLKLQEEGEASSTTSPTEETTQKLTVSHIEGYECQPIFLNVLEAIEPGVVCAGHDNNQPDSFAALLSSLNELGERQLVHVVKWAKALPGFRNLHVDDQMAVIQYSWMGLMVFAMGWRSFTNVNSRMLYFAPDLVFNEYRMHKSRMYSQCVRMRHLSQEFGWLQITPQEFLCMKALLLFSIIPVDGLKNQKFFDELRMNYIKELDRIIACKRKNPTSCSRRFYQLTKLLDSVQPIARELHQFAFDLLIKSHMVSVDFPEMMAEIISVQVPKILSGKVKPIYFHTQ
Procedure, shortened: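 AR degradation read by Western blot densitometry on RIPA lysates (pH 7.5, protease inhibitor cocktail). Lysates came from LNCap cells, 5.5×10^5 per well, exposed to compound for 24 hours.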

[4] = test system: LNCaP cells; test: Cytotoxicity assessment (Cell-titer-glo cell viability), LNCaP; details: read-out: LNCAP (CC50); LNCaP cells, 6 days of treatment, Cell-titer-glo, vs DMSO

Row | SMILES | CC50 [1] | CC50 [2] | Degradation (1 μM treated in LNCaP, % AR remaining) [3] | CC50 [4] | CC50 ([2]; 22RV1 cells, 6 days of treatment, Cell-titer-glo, vs DMSO, read-out: 22RV1 (CC50))
1 | CC1(C)[C@H](NC(=O)c2ccc(OCCOCCOCCOCCOCCOCCCNc3cccc4nnn(C5CCC(=O)NC5=O)c(=O)c34)cc2)C(C)(C)[C@H]1Oc1ccc(C#N)c(Cl)c1 (single isomer, unassigned) [Example 3, N-((1r,3r)-3-(3-chloro-4-cyanophenoxy)-2,2,4,4-tetramethylcyclobutyl)-4-((18-((3-(2,6-dioxopiperidin-3-yl)-4-oxo-3,4-dihydrobenzo[d][1,2,3]triazin-5-yl)amino)-3,6,9,12,15-pentaoxaoctadecyl)oxy)benzamide] | 2.98 µM | 0.43 µM | 47% |  | 
2 | CC1(C)[C@H](NC(=O)c2ccc(OCCOCCOCCOCCOCCOCCCNc3cccc4nnn(C5CCC(=O)NC5=O)c(=O)c34)cc2)C(C)(C)[C@H]1Oc1ccc(C#N)c(Cl)c1 (single isomer, unassigned) [Example 4, N-((1r,3r)-3-(3-chloro-4-cyanophenoxy)-2,2,4,4-tetramethylcyclobutyl)-4-((18-((3-(2,6-dioxopiperidin-3-yl)-4-oxo-3,4-dihydrobenzo[d][1,2,3]triazin-5-yl)amino)-3,6,9,12,15-pentaoxaoctadecyl)oxy)benzamide] | 5.32 µM | 4.46 µM | 58% |  | 
3 | CC1(C)C(NC(=O)c2ccc(OCCOCCOCCOCCOCCOCCOCCCCNc3cccc4nnn(C5CCC(=O)NC5=O)c(=O)c34)cc2)C(C)(C)C1Oc1ccc(C#N)c(Cl)c1 (stereo not drawn) [Example 6, N-((1r,3r)-3-(3-chloro-4-cyanophenoxy)-2,2,4,4-tetramethylcyclobutyl)-4-((22-((3-(2,6-dioxopiperidin-3-yl)-4-oxo-3,4-dihydrobenzo[d][1,2,3]triazin-5-yl)amino)-3,6,9,12,15,18-hexaoxadocosyl)oxy)benzamide] |  |  | 66% | 5.93 µM | 7.1 µM
